Earlier results, collected in the CATMoS acute toxicity set (Mansouri et al. 2021).
Values joined by “and” are separate entries in the source; they are usually repeats but may differ in a detail not shown here. Equal values may be shown once.

Assay: rat acute oral toxicity
Conditions: in vivo

Going from `CCCCCC/C=C/C1CC(=O)OC1=O` (centres undefined) to `CCCC[C@H](C)[C@H](O)C#C[C@H]1CCC(=O)[C@@H]1CC=CCCCC(=O)OC`, the LD50 falls from 1100 mg/kg to 338 mg/kg (3.3-fold).

First: CCCSP(=S)(OCC)Oc1ccc(Cl)cc1Cl (centres undefined)
Second: CCCCNP(=S)(OCC)Sc1ccccc1 (centres undefined)
The LD50 of the first is 2.9-fold higher: 875 mg/kg for the first, 300 mg/kg for the second.

First: CC(C)(O)C#CC(C)(C)O
Second: CC(C)(C)N=NC(C)(C)O
The LD50 of the first is 27-fold higher: 9000 mg/kg for the first, 329 mg/kg for the second.

Compared with `CCC(C)OCCO` (centres undefined), `CCCCC(CC)COCCCN` (centres undefined) is 2.5-fold lower in LD50: 790 mg/kg for the first, 320 mg/kg for the second.

Going from `COc1cc(-c2ccc(N)c(OC)c2)ccc1N` to `Nc1ccc(-c2ccc(N)cc2)cc1`, the LD50 falls from 1920 mg/kg to 309 mg/kg (6.2-fold).

`CCN=c1nc(Cl)[nH]c(=NC(C)CC)[nH]1` (centres undefined) and `CCCOCN(C(=O)CCl)c1c(C)cccc1OCC` are within 1.5-fold of each other in LD50: 3000 mg/kg for the first, 2100 mg/kg for the second.

First: FC(F)(F)c1nc2ccc(Br)cc2[nH]1
Second: N#Cc1ccc2nc(C(F)(F)F)[nH]c2c1
The LD50 of the first is 11-fold higher: 49 mg/kg for the first, 4.41 mg/kg for the second.

Going from `COc1ccc2c(c1)c(CC(=O)OCOC(=O)c1ccccc1)c(C)n2C(=O)c1ccc(Cl)cc1` to `N=C(N)Nc1ccc(C(=O)Oc2ccc3cc(C(=N)N)ccc3c2)cc1`, the LD50 rises from 73 mg/kg to 3050 mg/kg (42-fold).

Going from `Clc1cc(Cl)cc(Cl)c1` to `Nc1cccc(Cl)c1`, the LD50 falls from 800 mg/kg to 256 mg/kg (3.1-fold).

`Cc1cc(S(=O)(=O)O)cc(C)c1O` and `CS(=O)(=O)c1ccc(O)cc1` are within 1.5-fold of each other in LD50: 2650 mg/kg for the first, 3160 mg/kg for the second.

First: CCCc1ccc(O)cc1
Second: CCCCCCCCc1ccc(C)cc1O
The LD50 of the first is 8-fold lower: 500 mg/kg for the first, 4000 mg/kg for the second.

Compared with `CCCN(CCC)c1c([N+](=O)[O-])cc(C(C)=O)cc1[N+](=O)[O-]`, `CC(=O)c1cc2c(cc1C)C(C)(C)C(C)C2C(C)C` (centres undefined) is 3-fold higher in LD50: 750 mg/kg for the first, 2220 mg/kg for the second.

Compared with `Nc1cc(S(=O)(=O)O)c2cccc(S(=O)(=O)O)c2c1`, `Nc1ccc(-c2ccc(-n3nc4ccc5c(S(=O)(=O)O)cc(S(=O)(=O)O)cc5c4n3)cc2)cc1` is 1.6-fold lower in LD50: 11400 mg/kg for the first, 7210 mg/kg for the second.

Compared with `CCn1nc(C(=O)O)c(=O)c2cc3c(cc21)OCO3`, `CC(C)c1c(C(=O)c2cccnc2)c2ccccc2n1C` is 1.5-fold lower in LD50: 3610 mg/kg for the first, 2400 mg/kg for the second.

Going from `NS(=O)(=O)CCl` to `ClCCC(Cl)(Cl)Cl`, the LD50 falls from 6050 mg/kg to 490 mg/kg (12-fold).

Going from `Clc1cccc(SCc2nn[nH]n2)c1` to `c1ccc(Oc2nncc3ccccc23)cc1`, the LD50 falls from 2200 mg/kg to 1000 mg/kg (2.2-fold).

Going from `COc1cc(C(=O)OCCCN(C)CCN(C)CCCOC(=O)c2cc(OC)c(OC)c(OC)c2)cc(OC)c1OC` to `COP(=S)(OC)Oc1ccc(Sc2ccc(OP(=S)(OC)OC)c(C)c2)cc1C`, the LD50 falls from 2550 mg/kg to 250 mg/kg (10-fold).

Going from `COC(=O)Nc1nc2ccc(C(=O)c3ccc(F)cc3)cc2[nH]1` to `Cc1[nH]c(=O)c(C#N)cc1-c1ccc2nccn2c1`, the LD50 rises from 2560 mg/kg to 7800 mg/kg (3-fold).

Going from `NCCNCCNCCO` to `CCCCNC(=S)NCCCC`, the LD50 falls from 4630 mg/kg to 350 mg/kg (13-fold).

Compared with `O=C1NC(=O)C(c2ccccc2)(c2ccccc2)N1`, `O=C1c2ccccc2C(=O)C1c1c(Cl)cccc1Cl` is 3.3-fold lower in LD50: 1530 mg/kg for the first, 470 mg/kg for the second.

Going from `CC(c1ccccc1)C(C)(C)N` (centres undefined) to `CC(Cc1ccccc1)NN` (centres undefined), the LD50 falls from 180 mg/kg to 34 mg/kg (5.3-fold).

First: FC(F)(F)c1nc2c(Br)cc(Br)c(Br)c2[nH]1
Second: O=C=Nc1ccc(Cl)c(C(F)(F)F)c1
The LD50 of the first is 39-fold lower: 12.8 mg/kg for the first, 500 mg/kg for the second.

First: CCOC(=O)C(CC)(C(=O)NCCN(CC)CC)c1ccccc1 (centres undefined)
Second: CN(C)C(=O)SCCCCOc1ccccc1
The LD50 of the first is 1.9-fold lower: 610 mg/kg for the first, 1150 mg/kg for the second.

Compared with `COP(=O)(OC)OC`, `C=C(C)C(=O)OCC(C)C` is 11-fold higher in LD50: 840 mg/kg for the first, 9590 mg/kg for the second.

First: O=C(NP(=O)(N1CC1)N1CC1)c1cc(I)ccc1I
Second: COc1ccc2c(c1)C13CCCCC1C(C2)N(C)CC3 (centres undefined)
The LD50 of the first is 2.1-fold higher: 500 mg/kg for the first, 235 mg/kg for the second.

First: CC=C(CC)C(=O)NC(N)=O
Second: C=CC(=O)OCC(=O)OCC
The LD50 of the first is 12-fold higher: 2500 mg/kg for the first, 215 mg/kg for the second.

First: CC(c1ccc(Cl)cc1)c1ccc(Cl)cc1
Second: Cc1ccc(OP(=O)(Oc2ccc(C)cc2)Oc2ccc(C)cc2)cc1
The LD50 of the first is 13-fold lower: 1000 mg/kg for the first, 12800 mg/kg for the second.

Compared with `C#CCCC#CC#CCCCCO`, `CCCC(C)=NO` is 4.5-fold higher in LD50: 250 mg/kg for the first, 1130 mg/kg for the second.

First: CO[C@H]1[C@@H](O)C[C@H](O[C@H]2[C@@H](O)C[C@H](O[C@H]3[C@@H](O)C[C@H](O[C@H]4CC[C@@]5(C)[C@H](CC[C@@H]6[C@@H]5C[C@@H](O)[C@]5(C)[C@@H](C7=CC(=O)OC7)CC[C@]65O)C4)O[C@@H]3C)O[C@@H]2C)O[C@@H]1C
Second: CCCCC(=O)OC1CCC(N2CCCCC2)CC1 (centres undefined)
The LD50 of the first is 180-fold lower: 8.3 mg/kg for the first, 1510 mg/kg for the second.

Compared with `CC1CN1` (centres undefined), `CC1NC(=S)NC1=O` (centres undefined) is 55-fold higher in LD50: 19 mg/kg for the first, 1050 mg/kg for the second.

Compared with `CC(CO)Oc1ccccc1` (centres undefined), `ClC(Cl)Cc1ccccc1` is 1.9-fold higher in LD50: 2830 mg/kg for the first, 5500 mg/kg for the second.

First: Nc1ccc2[nH]c3c(c2c1)CCCC3
Second: CNC(=O)Oc1ccc(C)c(N(C)C)c1
The LD50 of the first is 8.1-fold higher: 374 mg/kg for the first, 46 mg/kg for the second.

Compared with `ClC1=C(Cl)C2(Cl)C3C4OC4C(Cl)C3C1(Cl)C2(Cl)Cl` (centres undefined), `BrC=Cc1ccccc1` is 83-fold higher in LD50: 15 mg/kg for the first, 1250 mg/kg for the second.

Compared with `C1N2CN3CN1CN(C2)C3`, `Cc1cccc(N2CCN(CC=Cc3ccc4c(c3)CCC(=O)N4Cc3ccccc3)CC2)c1` is 18-fold lower in LD50: 9200 mg/kg for the first, 500 mg/kg for the second.

Compared with `CN(C)C(=O)Cl`, `CC(C)c1cccc(OC(=O)N(C)C)c1` is 6.2-fold lower in LD50: 1000 mg/kg for the first, 160 mg/kg for the second.

`NC(N)=NCC=Cc1ccccc1` and `COc1cc(-n2ccnc2)ncn1` are within 1.5-fold of each other in LD50: 456 mg/kg for the first, 400 mg/kg for the second.

In the case of `O=C(O)CN(CCOCCOCCN(CC(=O)O)CC(=O)O)CC(=O)O`, the LD50 is listed as 4000 mg/kg and 3590 mg/kg.
In the case of `N#CC(Cl)(Cl)CCl`, the LD50 is listed as 200 mg/kg and 250 mg/kg.
